According to patent publication US10501421B1, “Substituted benzimidazoles as modulators of Ras signaling” (VANDERBILT UNIVERSITY, priority 2017, dated 2019):
Where a name gives a salt, the structure may show the parent alone.

biological target: Ras GEF SOS (Son of Sevenless) (Homo sapiens, UniProt Q07889); assay: SOS-mediated nucleotide exchange on Ras (BODIPY-GDP fluorescence); type: biochemical; details: SOS-mediated exchange of BODIPY-GDP for GTP on Ras
Procedure: Compounds of the present invention were tested for their ability to modify the rate at which Ras exchanges a labeled nucleotide guanosine diphosphate (GDP) analog for guanosine triphosphate (GTP). Briefly, test compounds, then GTP and the Ras GEF SOS (Son of Sevenless) are added to a buffered solution containing Ras protein loaded with BODIPY-GDP. Changes in fluoresence indicating exchange of the labeled GDP for GTP are monitored over time. Raw fluorescence data was fit to a single exponential decay function and derived rates were plotted as mean values. EC50 values were calculated by plotting mean derived rates as a function of compound concentration and fit using a four-parameter dose-response curve. This assay is performed in a method analogous to the assay disclosed in: Burns, M. C.; Sun, Q.; Daniels, R. N.; Camper, D. V.; Kennedy, J. P.; Phan, J.; Olejniczak, E. O.; Lee, T.; Waterson, A. G.; Rossanese, O. W.; Fesik, S. W. “Approach for targeting Ras with small molecules that activate SOS-mediated nucleotide exchange” Proc. Natl. Acad. Sci. 2014; 11(9): 3401-3406. PMCID: PMC3948241.

Ras GEF SOS (Son of Sevenless), sequence (Q07889 564-1049 limits assumed): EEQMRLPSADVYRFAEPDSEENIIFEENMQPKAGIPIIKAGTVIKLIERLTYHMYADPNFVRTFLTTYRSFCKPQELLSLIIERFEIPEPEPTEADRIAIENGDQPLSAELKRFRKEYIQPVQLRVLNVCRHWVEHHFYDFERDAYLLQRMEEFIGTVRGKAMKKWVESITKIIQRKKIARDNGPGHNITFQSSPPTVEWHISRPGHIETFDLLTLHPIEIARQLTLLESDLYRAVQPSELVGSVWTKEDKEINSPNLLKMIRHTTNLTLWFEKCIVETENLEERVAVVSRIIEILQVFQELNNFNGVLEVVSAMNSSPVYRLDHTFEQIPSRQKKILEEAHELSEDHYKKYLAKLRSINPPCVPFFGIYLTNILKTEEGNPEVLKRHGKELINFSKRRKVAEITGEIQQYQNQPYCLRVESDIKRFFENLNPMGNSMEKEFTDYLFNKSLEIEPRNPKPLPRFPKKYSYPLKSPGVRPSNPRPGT
Ras GEF SOS (Son of Sevenless), sequence (P01112 1-166 partner limits assumed): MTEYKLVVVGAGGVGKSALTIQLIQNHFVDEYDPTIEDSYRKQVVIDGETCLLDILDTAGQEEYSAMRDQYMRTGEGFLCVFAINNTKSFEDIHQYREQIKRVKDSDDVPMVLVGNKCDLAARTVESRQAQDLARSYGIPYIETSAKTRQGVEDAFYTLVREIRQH

EC50 | Compound
30 to 100 µM | Nc1nc2ccccc2n1Cc1ccc(F)cc1 [Example 1, 1-(4-fluorobenzyl)-1H-benzo[d]imidazol-2-amine]
30 to 100 µM | Nc1nc2ccccc2n1Cc1ccc(F)c(Cl)c1 [Example 2, 1-(3-chloro-4-fluorobenzyl)-1H-benzo[d]imidazol-2-amine]
30 to 100 µM | Cc1cc2nc(N)n(Cc3ccc(F)cc3)c2cc1C [Example 3, 1-(4-fluorobenzyl)-5,6-dimethyl-1H-benzo[d]imidazol-2-amine]
30 to 100 µM | Cc1cc2nc(N)n(Cc3ccc(Cl)cc3)c2cc1C [Example 5, 1-(4-chlorobenzyl)-5,6-dimethyl-1H-benzo[d]imidazol-2-amine]
30 to 100 µM | Cc1cc2nc(N)n(Cc3cc(F)cc(F)c3)c2cc1C [Example 6, 1-(3,5-difluorobenzyl)-5,6-dimethyl-1H-benzo[d]imidazol-2-amine]
30 to 100 µM | Fc1ccc(Cn2c(N3CCOCC3)nc3ccccc32)cc1Cl [Example 8, 4-(1-(3-chloro-4-fluorobenzyl)-1H-benzo[d]imidazol-2-yl)morpholine]
30 to 100 µM | Fc1ccc(Cn2c(N3CCOCC3)nc3ccccc32)cc1 [Example 9, 4-(1-(4-fluorobenzyl)-1H-benzo[d]imidazol-2-yl)morpholine]
1 to 5 µM | Clc1ccc(Cn2c(N3CCNCC3)nc3ccccc32)cc1 [Example 11, 1-(4-chlorobenzyl)-2-(piperazin-1-yl)-1H-benzo[d]imidazole trifluoroacetate]
5 to 30 µM | NCCNc1nc2ccccc2n1Cc1ccc(Cl)cc1 [Example 12, N^1-(1-(4-chlorobenzyl)-1H-benzo[d]imidazol-2-yl)ethane-1,2-diamine trifluoroacetate]
30 to 100 µM | Fc1cc(F)cc(Cn2c(N3CCOCC3)nc3ccccc32)c1 [Example 13, 4-(1-(3,5-difluorobenzyl)-1H-benzo[d]imidazol-2-yl)morpholine]
5 to 30 µM | Fc1cc(F)cc(Cn2c(N3CCNCC3)nc3ccccc32)c1 [Example 14, 1-(3,5-difluorobenzyl)-2-(piperazin-1-yl)-1H-benzo[d]imidazole trifluoroacetate]
5 to 30 µM | NCCNc1nc2ccccc2n1Cc1cc(F)cc(F)c1 [Example 15, N^1-(1-(3,5-difluorobenzyl)-1H-benzo[d]imidazol-2-yl)ethane-1,2-diamine trifluoroacetate]
30 to 100 µM | Cc1cc2nc(NCCO)n(Cc3ccc(F)cc3)c2cc1C [Example 23, 2-((1-(4-fluorobenzyl)-5,6-dimethyl-1H-benzo[d]imidazol-2-yl)amino)ethan-1-ol]
30 to 100 µM | Cc1cc2nc(N3CCN(C)CC3)n(Cc3ccc(F)c(Cl)c3)c2cc1C [Example 27, 1-(3-chloro-4-fluorobenzyl)-5,6-dimethyl-2-(4-methylpiperazin-1-yl)-1H-benzo[d]imidazole trifluoroacetate]
1 to 5 µM | Cc1cc2nc(NCCN(C)C)n(Cc3ccc(F)c(Cl)c3)c2cc1C [Example 28, N^1-(1-(3-chloro-4-fluorobenzyl)-5,6-dimethyl-1H-benzo[d]imidazol-2-yl)-N^2,N^2-dimethylethane-1,2-diamine trifluoroacetate]
30 to 100 µM | Cc1cc2nc(NCCN3CCOCC3)n(Cc3ccc(F)cc3)c2cc1C [Example 29, 1-(4-fluorobenzyl)-5,6-dimethyl-N-(2-morpholinoethyl)-1H-benzo[d]imidazol-2-amine trifluoroacetate]

EC50 | Compound
5 to 30 µM | Cc1cc2nc(NCCN3CCOCC3)n(Cc3ccc(F)c(Cl)c3)c2cc1C [Example 30, 1-(3-chloro-4-fluorobenzyl)-5,6-dimethyl-N-(2-morpholinoethyl)-1H-benzo[d]imidazol-2-amine trifluoroacetate]
5 to 30 µM | Cc1cc2nc(N3CCNCC3)n(Cc3cccc(C(F)(F)F)c3)c2cc1C [Example 32, 5,6-dimethyl-2-(piperazin-1-yl)-1-(3-(trifluoromethyl)benzyl)-1H-benzo[d]imidazole trifluoroacetate]
30 to 100 µM | Cc1cc2nc(-c3ccncc3)n(Cc3cc(F)cc(F)c3)c2cc1C [Example 53, 1-(3,5-difluorobenzyl)-5,6-dimethyl-2-(pyridin-4-yl)-1H-benzo[d]imidazole]
30 to 100 µM | Cc1cc2nc(-c3ccncc3)n(Cc3ccc(F)c(Cl)c3)c2cc1C [Example 54, 1-(3-chloro-4-fluorobenzyl)-5,6-dimethyl-2-(pyridin-4-yl)-1H-benzo[d]imidazole]
5 to 30 µM | Fc1ccc(Cn2c(C3CCNCC3)nc3ccccc32)cc1Cl [Example 55, 1-(3-chloro-4-fluorobenzyl)-2-(piperidin-4-yl)-1H-benzo[d]imidazole trifluoroacetate]
5 to 30 µM | Fc1cc(F)cc(Cn2c(C3CCNCC3)nc3ccccc32)c1 [Example 57, 1-(3,5-difluorobenzyl)-2-(piperidin-4-yl)-1H-benzo[d]imidazole trifluoroacetate]
5 to 30 µM | Cc1cc2nc(C3CCNCC3)n(Cc3ccc(F)c(Cl)c3)c2cc1C [Example 59, 1-(3-chloro-4-fluorobenzyl)-5,6-dimethyl-2-(piperidin-4-yl)-1H-benzo[d]imidazazole trifluoroacetate]
1 to 5 µM | Cc1ccc2nc(NCCN)n(Cc3ccc(F)c(Cl)c3)c2c1 [Example 60, N^1-(1-(3-chloro-4-fluorobenzyl)-6-methyl-1H-benzo[d]imidazol-2-yl)ethane-1,2-diamine trifluoroacetate]
1 to 5 µM | Fc1ccc(Cn2c(N3CCNCC3)nc3ccc(C(F)(F)F)cc32)cc1Cl [Example 71, 1-(3-chloro-4-fluorobenzyl)-2-(piperazin-1-yl)-6-(trifluoromethyl)-1H-benzo[d]imidazole trifluoroacetate]
1 to 5 µM | COc1ccc(-c2cccc3c2nc(N2CCNCC2)n3Cc2ccc(F)c(Cl)c2)cc1OC [Example 88, 1-(3-chloro-4-fluorobenzyl)-4-(3,4-dimethoxyphenyl)-2-(piperazin-1-yl)-1H-benzo[d]imidazole]
5 to 30 µM | NCCc1cccc2c1nc(N1CCNCC1)n2Cc1cc(F)cc(F)c1 [Example 99, 2-(1-(3,5-difluorobenzyl)-2-(piperazin-1-yl)-1H-benzo[d]imidazol-4-yl)ethan-1-amine trifluoroacetate]
1 to 5 µM | NCCc1cccc2c1nc(N1CCNCC1)n2Cc1ccc(C(F)(F)F)cc1 [Example 100, 2-(2-(piperazin-1-yl)-1-(4-(trifluoromethyl)benzyl)-1H-benzo[d]imidazol-4-yl)ethan-1-amine trifluoroacetate]
1 to 5 µM | Cc1cc2c(nc(NCCN)n2Cc2cccc(C#N)c2)c(-c2ccccc2Cl)c1C [Example 117, 3-((2-((2-aminoethyl)amino)-4-(2-chlorophenyl)-5,6-dimethyl-1H-benzo[d]imidazol-1-yl)methyl)benzonitrile trifluoroacetate]
30 to 100 µM | Cc1cc(CN2CCCCC2)c2ncn(Cc3ccc(F)c(Cl)c3)c2c1 [Example 144, 1-(3-chloro-4-fluorobenzyl)-6-methyl-4-(piperidin-1-ylmethyl)-1H-benzo[d]imidazole trifluoroacetate]
1 to 5 µM | Cc1cc2c(nc(NCCN)n2Cc2ccc(F)c(Cl)c2)c(CN2CCCC2)c1C [Example 146, N^1-(1-(3-chloro-4-fluorobenzyl)-5,6-dimethyl-4-(pyrrolidin-1-ylmethyl)-1H-benzo[d]imidazol-2-yl)ethane-1,2-diamine trifluoroacetate]
